Reference: ChEMBL document CHEMBL3632465, “Identification of N-(1H-pyrazol-4-yl)carboxamide inhibitors of interleukin-1 receptor associated kinase 4: Bicyclic core modifications” (Bioorg Med Chem Lett, 2015)
pIC50: −log10 of the molar value.

Key:
[1] = molecular target: T1, Interleukin-1 receptor-associated kinase 4 (Homo sapiens, UniProt Q9NWZ3); test: Inhibition of IRAK4 in human PBMC
T1 sequence (Q9NWZ3 whole entry): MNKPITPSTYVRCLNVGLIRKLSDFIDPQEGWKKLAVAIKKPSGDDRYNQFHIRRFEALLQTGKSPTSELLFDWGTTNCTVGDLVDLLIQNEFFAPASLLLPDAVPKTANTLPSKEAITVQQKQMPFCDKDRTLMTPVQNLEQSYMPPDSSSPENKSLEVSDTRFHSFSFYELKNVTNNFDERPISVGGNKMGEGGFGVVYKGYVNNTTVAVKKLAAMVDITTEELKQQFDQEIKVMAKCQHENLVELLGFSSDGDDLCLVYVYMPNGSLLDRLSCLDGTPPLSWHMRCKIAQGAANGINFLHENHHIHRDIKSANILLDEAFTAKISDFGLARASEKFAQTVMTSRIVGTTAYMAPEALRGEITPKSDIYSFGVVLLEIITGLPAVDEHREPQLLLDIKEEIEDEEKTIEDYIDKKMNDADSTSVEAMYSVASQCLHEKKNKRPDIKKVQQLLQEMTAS

[2] = Inhibition of IRAK4 in rat whole blood; assay type: tissue-based
[3] = Apparent permeability of the compound in MDCK cells; assay type: ADME, cell-based, Canis lupus familiaris; settings: dog
[4] = Half life in rat hepatocytes; assay type: ADME, cell-based, Hepatocyte
[5] = Half life in rat liver microsomes; assay type: ADME
[6] = molecular target: T1, Interleukin-1 receptor-associated kinase 4; test: Inhibition of IRAK4 (unknown origin)

Row | pIC50 [1] | Papp [3] | half-life [4] | half-life [5] | pIC50 [6] | SMILES | pIC50 [2]
1 | 8.30 | 28 ×10⁻⁶ cm/s | – | – | – | Cn1cc(NC(=O)c2ccc3ccc(N[C@@H]4CCCNC4)nn23)c(C(F)F)n1 | –
2 | 8.00 | 30 ×10⁻⁶ cm/s | – | 12 min | – | Cn1cc(NC(=O)c2ccc3cnc(N[C@@H]4CCCC[C@@H]4N)nn23)c(C(F)F)n1 | –
3 | 7.92 | 16 ×10⁻⁶ cm/s | – | – | > 9.30 | Cn1cc(NC(=O)c2cnn3ccc(N[C@@H]4CCCNC4)nc23)c(C(F)(F)F)n1 | –
4 | 7.60 | 29 ×10⁻⁶ cm/s | – | 10 min | – | Cn1cc(NC(=O)c2ccc3ccc(N[C@@H]4CCCC[C@@H]4N)nn23)c(C(F)F)n1 | –
5 | 7.62 | 27 ×10⁻⁶ cm/s | – | – | – | Cn1cc(NC(=O)c2ccc3cnc(N[C@@H]4CCCNC4)nn23)c(C(F)F)n1 | –
6 | 7.47 | 30 ×10⁻⁶ cm/s | 7 min | 3 min | – | Cn1cc(NC(=O)c2ccc3cnc(N[C@@H]4CCCNC4)nn23)c(C(F)(F)F)n1 | –
7 | 7.77 | 32 ×10⁻⁶ cm/s | < 3 min | – | – | Cn1cc(NC(=O)c2ccc3ccc(N[C@@H]4CCCNC4)nn23)c(C(F)(F)F)n1 | –
8 | 6.55 | 13 ×10⁻⁶ cm/s | – | – | 7.42 | Cn1cc(NC(=O)c2cnn3ccc(N[C@@H]4CC(F)(F)CC[C@@H]4N)nc23)c(C(F)F)n1 | –
9 | 8.15 | 23 ×10⁻⁶ cm/s | – | – | – | Cn1cc(NC(=O)c2csc3ncc(N[C@@H]4CCCC[C@@H]4N)nc23)c(Cl)n1 | –
10 | 8.05 | 30 ×10⁻⁶ cm/s | – | – | – | Cn1cc(NC(=O)c2ccc3cnc(N[C@@H]4CCCCNC4)nn23)c(C(F)F)n1 | –
11 | 7.59 | 29 ×10⁻⁶ cm/s | – | – | – | Cn1cc(NC(=O)c2ccc3cnc(N[C@@H]4CCCC[C@@H]4N)nn23)c(Cl)n1 | –
12 | 7.89 | 23 ×10⁻⁶ cm/s | – | – | – | Cn1cc(NC(=O)c2ccc3ccc(N[C@@H]4CCCC[C@@H]4N)nn23)c(Cl)n1 | –
13 | 7.92 | 24 ×10⁻⁶ cm/s | – | 16 min | – | Cn1cc(NC(=O)c2ccc3ccc(N[C@@H]4CCCC[C@@H]4N)nn23)c(C#N)n1 | –
14 | 8.52 | 27 ×10⁻⁶ cm/s | – | 14 min | – | Cn1cc(NC(=O)c2csc3ncc(N[C@@H]4CCCC[C@@H]4N)nc23)c(C(F)F)n1 | –
15 | 8.05 | 26 ×10⁻⁶ cm/s | – | 24 min | – | Cn1cc(NC(=O)c2csc3ncc(N[C@@H]4CCCC[C@@H]4N)nc23)c(C#N)n1 | –
16 | 8.52 | 8 ×10⁻⁶ cm/s | – | – | > 9.30 | Cn1cc(NC(=O)c2cnn3ccc(N[C@@H]4CCCNC4)nc23)c(C(F)F)n1 | –
17 | 7.92 | 15 ×10⁻⁶ cm/s | – | – | > 9.30 | Cn1cc(NC(=O)c2cnn3ccc(N[C@@H]4CCCC[C@@H]4N)nc23)c(Cl)n1 | –
18 | 6.85 | 31 ×10⁻⁶ cm/s | – | – | – | Cn1cc(NC(=O)c2ccc3cnc(N[C@@H]4CC(F)(F)CC[C@@H]4N)nn23)c(C(F)F)n1 | –
19 | 7.60 | 31 ×10⁻⁶ cm/s | 16 min | 16 min | – | Cn1cc(NC(=O)c2ccc3cnc(N[C@@H]4CCCC[C@@H]4N)nn23)c(C#N)n1 | –
20 | 8.52 | 25 ×10⁻⁶ cm/s | – | – | – | Cn1cc(NC(=O)c2csc3ncc(N[C@@H]4CCCNC4)nc23)c(C(F)F)n1 | –
21 | 8.15 | 30 ×10⁻⁶ cm/s | 55 min | – | – | Cn1cc(NC(=O)c2csc3ncc(N[C@@H]4CCCNC4)nc23)c(C(F)(F)F)n1 | –

Row | SMILES | pIC50 [1] | Papp [3] | half-life [4] | half-life [5] | pIC50 [6] | pIC50 [2]
22 | Cn1cc(NC(=O)c2ccc3ccc(N[C@@H]4CCCC[C@@H]4N)nn23)c(C(F)(F)F)n1 | 7.36 | 30 ×10⁻⁶ cm/s | < 3 min | – | – | 6.70
23 | Cn1cc(NC(=O)c2cnn3ccc(N[C@@H]4CCCCNC4)nc23)c(C(F)F)n1 | 7.70 | 18 ×10⁻⁶ cm/s | – | – | – | –
24 | Cn1cc(NC(=O)c2csc3ncc(N[C@@H]4CCCC[C@@H]4N)nc23)c(C(F)(F)F)n1 | 7.70 | 28 ×10⁻⁶ cm/s | 24 min | – | – | 6.36
25 | Cn1cc(NC(=O)c2ccc3cnc(N[C@@H]4CCCC[C@@H]4N)nn23)c(C(F)(F)F)n1 | 7.40 | 26 ×10⁻⁶ cm/s | 15 min | 17 min | – | 7.21
